Data as given in ChEMBL document CHEMBL1909046, “DrugMatrix in vitro pharmacology data”.

What was measured:
[1] = biological target: T1, Alpha-2C adrenergic receptor (Homo sapiens, UniProt P18825); experiment: DRUGMATRIX: Adrenergic Alpha-2C radioligand binding (ligand: [3H] MK-912); type: cell membranes, Sf9, Membrane; conditions: for Ki: read-out: Ki
T1 sequence (P18825 whole entry): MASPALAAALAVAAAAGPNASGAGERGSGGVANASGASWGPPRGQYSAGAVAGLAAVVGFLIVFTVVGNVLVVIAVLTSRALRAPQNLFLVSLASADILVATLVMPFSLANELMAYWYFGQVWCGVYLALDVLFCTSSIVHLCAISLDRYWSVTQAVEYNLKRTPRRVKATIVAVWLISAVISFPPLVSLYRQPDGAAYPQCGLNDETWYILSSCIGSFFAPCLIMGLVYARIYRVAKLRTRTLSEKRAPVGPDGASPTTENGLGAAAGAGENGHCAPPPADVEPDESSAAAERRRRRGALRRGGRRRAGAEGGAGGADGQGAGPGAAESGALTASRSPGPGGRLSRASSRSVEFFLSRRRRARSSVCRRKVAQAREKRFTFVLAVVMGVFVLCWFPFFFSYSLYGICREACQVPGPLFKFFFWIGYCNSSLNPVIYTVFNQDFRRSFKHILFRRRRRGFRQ

[2] = biological target: T2, Cholecystokinin receptor type A (Homo sapiens, UniProt P32238); type: cell membranes, Membrane; conditions: 1321-n1; note: in other assays of this panel Not Active means under 50% inhibition at 10 µM
T2 sequence (P32238 whole entry): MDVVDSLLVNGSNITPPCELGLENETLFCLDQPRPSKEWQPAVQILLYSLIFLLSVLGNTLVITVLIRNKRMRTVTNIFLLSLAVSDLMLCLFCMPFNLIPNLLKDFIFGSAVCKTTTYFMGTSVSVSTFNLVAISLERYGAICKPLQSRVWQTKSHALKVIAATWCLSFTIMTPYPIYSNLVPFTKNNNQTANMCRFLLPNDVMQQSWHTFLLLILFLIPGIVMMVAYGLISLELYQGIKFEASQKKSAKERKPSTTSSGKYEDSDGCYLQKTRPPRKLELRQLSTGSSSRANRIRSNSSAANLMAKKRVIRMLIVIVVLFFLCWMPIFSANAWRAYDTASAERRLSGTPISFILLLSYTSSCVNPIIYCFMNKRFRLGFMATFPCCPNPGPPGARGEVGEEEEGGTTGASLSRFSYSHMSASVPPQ

D(1A) dopamine receptor = D(1A) dopamine receptor (Homo sapiens, UniProt P21728); experiment: DRUGMATRIX: Dopamine D1 radioligand binding (ligand: [3H] SCH-23390); type: cell membranes, CHO, Membrane; conditions: Not Active = under 50% inhibition at 10 µM
Sequence of D(1A) dopamine receptor (P21728 whole entry): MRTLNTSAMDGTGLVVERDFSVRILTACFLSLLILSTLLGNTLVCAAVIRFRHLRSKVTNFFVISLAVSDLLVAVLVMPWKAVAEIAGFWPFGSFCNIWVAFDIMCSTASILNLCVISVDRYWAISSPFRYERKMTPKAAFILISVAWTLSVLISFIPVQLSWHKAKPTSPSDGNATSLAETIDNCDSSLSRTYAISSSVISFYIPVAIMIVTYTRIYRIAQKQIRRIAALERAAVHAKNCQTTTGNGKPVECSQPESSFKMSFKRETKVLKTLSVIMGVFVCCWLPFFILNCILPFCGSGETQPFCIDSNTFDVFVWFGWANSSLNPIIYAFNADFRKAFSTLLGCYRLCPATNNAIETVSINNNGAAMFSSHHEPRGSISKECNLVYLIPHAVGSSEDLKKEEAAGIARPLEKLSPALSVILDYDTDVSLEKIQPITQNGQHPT

Cathepsin G = biological target: T3, Cathepsin G (Homo sapiens, UniProt P08311); type: tissue-based; conditions: neutrophil;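 note: inhibition of Cathepsin G enzyme activity, tested on an AMC-conjugated peptide substrate; in other assays of this panel Not Active means under 50% inhibition at 10 µM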
T3 sequence (P08311 whole entry): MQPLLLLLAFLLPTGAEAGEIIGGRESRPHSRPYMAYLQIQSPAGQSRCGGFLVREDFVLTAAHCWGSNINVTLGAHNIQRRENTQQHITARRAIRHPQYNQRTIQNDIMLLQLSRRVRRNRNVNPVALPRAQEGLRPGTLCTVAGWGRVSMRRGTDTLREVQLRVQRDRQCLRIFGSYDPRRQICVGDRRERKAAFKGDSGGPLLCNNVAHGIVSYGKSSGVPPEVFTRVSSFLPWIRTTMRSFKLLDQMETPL

[3] = biological target: Tyrosine-protein kinase Lck (Homo sapiens, UniProt P06239); experiment: DRUGMATRIX: Protein Tyrosine Kinase, LCK enzyme inhibition (substrate: Poly(Glu:Tyr)); type: cell-based, Insect cells; conditions: Not Active = under 50% inhibition at 10 µM
Sequence of Tyrosine-protein kinase Lck (P06239 whole entry): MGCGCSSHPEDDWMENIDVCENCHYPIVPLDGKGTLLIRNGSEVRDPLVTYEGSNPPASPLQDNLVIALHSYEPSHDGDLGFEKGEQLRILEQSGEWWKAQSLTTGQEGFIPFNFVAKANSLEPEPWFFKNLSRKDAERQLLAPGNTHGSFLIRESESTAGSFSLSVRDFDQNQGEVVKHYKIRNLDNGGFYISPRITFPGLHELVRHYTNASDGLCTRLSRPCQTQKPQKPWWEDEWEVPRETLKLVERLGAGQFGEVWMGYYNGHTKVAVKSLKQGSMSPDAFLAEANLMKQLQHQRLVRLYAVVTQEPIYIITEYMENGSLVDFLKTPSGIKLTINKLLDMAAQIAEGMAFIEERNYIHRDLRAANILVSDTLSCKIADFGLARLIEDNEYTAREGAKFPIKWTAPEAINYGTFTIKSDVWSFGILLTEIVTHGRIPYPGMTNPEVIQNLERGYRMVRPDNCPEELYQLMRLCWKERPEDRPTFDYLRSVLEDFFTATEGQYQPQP

Acetylcholinesterase = Acetylcholinesterase (Homo sapiens, UniProt P22303); experiment: DRUGMATRIX: Acetylcholinesterase enzyme inhibition (substrate: acetylthiocholine); type: cell-based, HEK293; conditions: hek293; Not Active = under 50% inhibition at 10 µM
Sequence of Acetylcholinesterase (P22303 whole entry): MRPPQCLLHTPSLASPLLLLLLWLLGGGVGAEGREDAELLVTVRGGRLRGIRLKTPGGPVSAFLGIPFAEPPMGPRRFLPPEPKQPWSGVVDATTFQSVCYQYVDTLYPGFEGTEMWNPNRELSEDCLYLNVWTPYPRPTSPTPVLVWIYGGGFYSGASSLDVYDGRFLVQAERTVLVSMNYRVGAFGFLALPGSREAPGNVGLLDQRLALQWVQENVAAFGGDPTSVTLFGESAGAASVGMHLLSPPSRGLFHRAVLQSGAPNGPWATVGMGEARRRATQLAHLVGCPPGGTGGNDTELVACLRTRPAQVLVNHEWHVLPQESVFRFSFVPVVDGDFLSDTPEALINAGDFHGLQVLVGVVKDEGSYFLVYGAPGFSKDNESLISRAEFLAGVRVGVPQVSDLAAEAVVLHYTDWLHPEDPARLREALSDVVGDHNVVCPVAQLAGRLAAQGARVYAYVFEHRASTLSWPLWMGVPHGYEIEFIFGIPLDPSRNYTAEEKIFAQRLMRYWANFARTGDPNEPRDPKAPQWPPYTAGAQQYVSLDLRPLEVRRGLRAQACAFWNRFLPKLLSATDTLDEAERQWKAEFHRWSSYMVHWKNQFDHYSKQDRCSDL

| SMILES | IC50 ([1]; sf9) | IC50 [2] | IC50 (D(1A) dopamine receptor; cho) | IC50 (Cathepsin G) | IC50 ([3]; insect cells) | IC50 (Acetylcholinesterase) | IC50 ([3]; read-out: IC50) | IC50 ([1]; read-out: IC50) | Ki [1] | IC50 (D(1A) dopamine receptor; read-out: IC50) | Ki (D(1A) dopamine receptor; read-out: Ki) |
| --- | --- | --- | --- | --- | --- | --- | --- | --- | --- | --- | --- |
| CCOc1nc2cccc(C(=O)O)c2n1Cc1ccc(-c2ccccc2-c2nnn[nH]2)cc1 | Not Active | Not Active | Not Active | Not Active | Not Active | Not Active | – | – | – | – | – |
| O=C(O)CCCc1cccs1 | Not Active | Not Active | Not Active | Not Active | Not Active | Not Active | – | – | – | – | – |
| COc1ccccc1N | Not Active | Not Active | Not Active | Not Active | Not Active | Not Active | – | – | – | – | – |
| O=C(c1ccccc1F)N1CCC(Cc2ccccc2)CC1 | Not Active | Not Active | Not Active | Not Active | Not Active | Not Active | – | – | – | – | – |
| Cc1c(O)cccc1C(=O)N[C@@H](CSc1ccccc1)[C@H](O)CN1C[C@H]2CCCC[C@H]2C[C@H]1C(=O)NC(C)(C)C | Not Active | Not Active | – | Not Active | – | Not Active | 79200 nM | – | – | – | – |
| CC(O)COC[C@H]1O[C@@H]2O[C@H]3[C@H](O)[C@@H](O)[C@@H](O[C@H]4[C@H](O)[C@@H](O)[C@@H](O[C@H]5[C@H](O)[C@@H](O)[C@@H](O[C@H]6[C@H](O)[C@@H](O)[C@@H](O[C@H]7[C@H](O)[C@@H](O)[C@@H](O[C@H]8[C@H](O)[C@@H](O)[C@@H](O[C@H]1[C@H](O)[C@H]2O)O[C@@H]8COCC(C)O)O[C@@H]7COCC(C)O)O[C@@H]6COCC(C)O)O[C@@H]5COCC(C)O)O[C@@H]4COCC(C)O)O[C@@H]3COCC(C)O (stereo partly drawn) [2-HYDROXYPROPYL-BETA-CYCLODEXTRIN] | Not Active | Not Active | Not Active | Not Active | Not Active | Not Active | – | – | – | – | – |
| NC(=O)c1cccc(N)c1 [3-AMINOBENZAMIDE] | Not Active | Not Active | Not Active | Not Active | Not Active | Not Active | – | – | – | – | – |
| C[C@H]1O[C@H](O[C@H]2[C@H](O)[C@@H](O)[C@@H](O[C@H]3[C@H](O)[C@@H](O)C(O)O[C@@H]3CO)O[C@@H]2CO)[C@H](O)[C@@H](O)[C@@H]1N[C@H]1C=C(CO)[C@@H](O)[C@H](O)[C@H]1O (stereo partly specified) [ACARBOSE] | Not Active | Not Active | Not Active | Not Active | Not Active | Not Active | – | – | – | – | – |
| CC[C@H]1[C@@H]2C[C@H]3[C@@H]4N(C)c5ccccc5[C@]45C[C@@H]([C@@H]2[C@H]5O)N3[C@@H]1O [AJMALINE] | Not Active | Not Active | Not Active | Not Active | Not Active | Not Active | – | – | – | – | – |
| NC12CC3CC(CC(C3)C1)C2 [AMANTADINE] | Not Active | Not Active | Not Active | Not Active | Not Active | Not Active | – | – | – | – | – |
| NCCCNCCSP(=O)(O)O [AMIFOSTINE] | Not Active | Not Active | Not Active | Not Active | Not Active | Not Active | – | – | – | – | – |
| CN(C)CCC=C1c2ccccc2CCc2ccccc21 [AMITRIPTYLINE] | – | Not Active | – | Not Active | Not Active | Not Active | – | 59 nM | 8.6 nM | 355 nM | 178 nM |
| CC(=O)Oc1ccccc1C(=O)O [ASPIRIN] | Not Active | Not Active | Not Active | Not Active | Not Active | Not Active | – | – | – | – | – |
| CC(C)c1c(C(=O)Nc2ccccc2)c(-c2ccccc2)c(-c2ccc(F)cc2)n1CC[C@@H](O)C[C@@H](O)CC(=O)O [ATORVASTATIN] | Not Active | Not Active | Not Active | Not Active | Not Active | Not Active | – | – | – | – | – |
| CC(=O)OC[C@H]1O[C@@H](n2ncc(=O)[nH]c2=O)[C@H](OC(C)=O)[C@@H]1OC(C)=O [AZARIBINE] | Not Active | Not Active | Not Active | Not Active | Not Active | Not Active | – | – | – | – | – |
| C[C@H]1[C@H](NC(=O)/C(=N\OC(C)(C)C(=O)O)c2csc(N)n2)C(=O)N1S(=O)(=O)O [AZTREONAM] | Not Active | Not Active | Not Active | Not Active | Not Active | Not Active | – | – | – | – | – |

| SMILES | IC50 ([1]; sf9) | IC50 [2] | IC50 (D(1A) dopamine receptor; cho) | IC50 (Cathepsin G) | IC50 ([3]; insect cells) | IC50 (Acetylcholinesterase) | IC50 ([3]; read-out: IC50) | IC50 ([1]; read-out: IC50) | Ki [1] | IC50 (D(1A) dopamine receptor; read-out: IC50) | Ki (D(1A) dopamine receptor; read-out: Ki) |
| --- | --- | --- | --- | --- | --- | --- | --- | --- | --- | --- | --- |
| O=C(O)CCNC(=O)c1ccc(/N=N/c2ccc(O)c(C(=O)O)c2)cc1 [BALSALAZIDE] | Not Active | Not Active | Not Active | Not Active | Not Active | Not Active | – | – | – | – | – |
| COc1cc(OC)c(C(=O)CCCN2CCCC2)c(OC)c1 [BUFLOMEDIL] | Not Active | Not Active | Not Active | Not Active | Not Active | Not Active | – | – | – | – | – |
| Cn1c(=O)c2c(ncn2C)n(C)c1=O [CAFFEINE] | Not Active | Not Active | Not Active | Not Active | Not Active | Not Active | – | – | – | – | – |
| ClC(Cl)(Cl)Cl [CARBON TETRACHLORIDE] | Not Active | Not Active | Not Active | Not Active | Not Active | Not Active | – | – | – | – | – |
| CO/N=C(\C(=O)N[C@@H]1C(=O)N2C(C(=O)O)=C(COC(C)=O)CS[C@H]12)c1csc(N)n1 [CEFOTAXIME] | Not Active | Not Active | Not Active | Not Active | Not Active | Not Active | – | – | – | – | – |
| CNC1=Nc2ccc(Cl)cc2C(c2ccccc2)=[N+]([O-])C1 [CHLORDIAZEPOXIDE] | Not Active | Not Active | Not Active | Not Active | Not Active | Not Active | – | – | – | – | – |
| Cc1cc(O)cc(C)c1Cl [CHLOROXYLENOL] | Not Active | Not Active | Not Active | Not Active | Not Active | Not Active | – | – | – | – | – |
| CCCNC(=O)NS(=O)(=O)c1ccc(Cl)cc1 [CHLORPROPAMIDE] | Not Active | Not Active | Not Active | Not Active | Not Active | Not Active | – | – | – | – | – |
| NS(=O)(=O)c1cc(C2(O)NC(=O)c3ccccc32)ccc1Cl (stereo unspecified) [CHLORTHALIDONE] | Not Active | Not Active | Not Active | Not Active | Not Active | Not Active | – | – | – | – | – |
| O=C(O)CC(O)(CC(=O)O)C(=O)O [CITRIC ACID] | Not Active | Not Active | Not Active | Not Active | Not Active | Not Active | – | – | – | – | – |
| CC(C)NCC(O)c1ccccc1Cl (stereo unspecified) [CLORPRENALINE] | Not Active | Not Active | Not Active | Not Active | Not Active | Not Active | – | – | – | – | – |
| CN1CCN(C(c2ccccc2)c2ccccc2)CC1 [CYCLIZINE] | Not Active | Not Active | Not Active | Not Active | Not Active | Not Active | – | – | – | – | – |
| CN1C[C@@H]2C[C@H]1CN2c1cc2c(cc1F)c(=O)c(C(=O)O)cn2C1CC1 [DANOFLOXACIN] | Not Active | Not Active | Not Active | Not Active | Not Active | Not Active | – | – | – | – | – |
| CN(C)C(=O)Oc1cccc([N+](C)(C)C)c1.[Br-] [NEOSTIGMINE BROMIDE] | Not Active | Not Active | Not Active | Not Active | Not Active | – | – | – | – | – | – |
| CCN(CC)CCCC(C)Nc1c2ccc(Cl)cc2nc2ccc(OC)cc12 (stereo unspecified) [QUINACRINE] | – | Not Active | Not Active | Not Active | Not Active | – | – | 3860 nM | 560 nM | – | – |
